Consider three compounds from patent US4486419A, “5,2',3',4',4",6"-Hexadeoxykanamycin and its 1-N-acylated derivative” (Zaidan Hojin Biseibutsu Kagaku Kenkyu Kai, priority 1982, dated 1984).

Converted amounts (≈) assume the structure as drawn. A value given as a limit tells only on which side of the number the result lay.

Type in all cases: cell-based
Test [1] has as its system Escherichia coli K-12 ML 1629. The conditions noted are these: K12ML1629, nutrient agar, 37° C., 18 hours.
For test [2], the system named is Pseudomonas aeruginosa TI-13. The conditions noted are these: TI13, nutrient agar, 37° C., 18 hours.
Test [3] relates to Pseudomonas maltophilia GN907. The note with it: Stenotrophomonas maltophilia, nutrient agar, 37° C., 18 hours.
In test [4] the test system is Bacillus subtilis PCI 219. The conditions noted are these: PCI219, nutrient agar, 37° C., 18 hours.
The next test concerns Escherichia coli JR255. Kind of test: microbe, parasite or virus in culture. The conditions noted are these: JR255, 18 h.
In test [5] the test system is Pseudomonas aeruginosa ROS134/PU21. The conditions noted are these: ROS134/PU21, 18 h.
Test [6] has as its system Pseudomonas aeruginosa PST1. The conditions noted are these: nutrient agar, 37° C., 18 hours.
For the next test, the system named is Providencia Pv 16. The conditions noted are these: PV16, nutrient agar, 37° C., 18 hours.
The test system of test [7] is Klebsiella pneumoniae PCI 602. The note with it: PCI602, nutrient agar, 37° C., 18 hours.
The test system of the next test is bacterial strains. Description: antibacterial activity (in words).
For another test, the system named is Escherichia coli K-12 R5. The note with it: K12R5, 18 h.
The test system of another test is Proteus vulgaris OX19. The conditions noted are these: nutrient agar, 37° C., 18 hours.
Another test has as its system Escherichia coli K-12. The conditions noted are these: K12, nutrient agar, 37° C., 18 hours.
Test [8] concerns kanamycin-resistant bacteria. Description: antibacterial activity against kanamycin-resistant bacteria (in words). The note with it: even with the kanamycin-resistant bacteria.

On to `C[C@@H]1C[C@H](N)[C@@H](O)[C@@H](O[C@@H]2C[C@H](O[C@@H]3CCC[C@@H](CN)O3)[C@@H](N)C[C@H]2N)O1` [Hexadeoxykanamycin, 5,2',3',4',4",6"-hexadeoxykanamycin], for which the MIC in [1] was 25 µg/mL (≈ 64.3 µM); in test [2] it was 50 µg/mL (≈ 129 µM); in test [3], over 100 µg/mL; in test [4], 0.78 µg/mL (≈ 2.01 µM); in the test with Escherichia coli JR255 it was 1.56 µg/mL (≈ 4.02 µM); in test [5] it was over 100 µg/mL. The MIC was over 100 µg/mL in test [6]; 12.5 µg/mL (≈ 32.2 µM) in the test on Providencia Pv 16; 1.56 µg/mL (≈ 4.02 µM) in [7]; over 100 µg/mL in the test on Escherichia coli K-12 R5; 1.56 µg/mL (≈ 4.02 µM) against Proteus vulgaris OX19; 1.56 µg/mL (≈ 4.02 µM) in the test on Escherichia coli K-12. Besides, the antibacterial activity entry in the test on bacterial strains is “antibacterial activity as high as that of the parent kanamycin A”.

With `C[C@@H]1C[C@H](N)[C@@H](O)[C@@H](O[C@@H]2C[C@H](O[C@@H]3CCC[C@@H](CN)O3)[C@@H](N)C[C@H]2NC(=O)[C@@H](O)CCN)O1` [Hexadeoxyamikacin, 1-N-[(S)-4-amino-2-hydroxybutyryl]-5,2',3',4',4",6"-hexadeoxykanamycin], the MIC in test [1] was 1.56 µg/mL (≈ 3.19 µM); in test [2], 12.5 µg/mL (≈ 25.5 µM); in test [3] it was over 100 µg/mL; in test [4], 0.78 µg/mL (≈ 1.59 µM); with Escherichia coli JR255 it was 0.78 µg/mL (≈ 1.59 µM); in test [5], over 100 µg/mL. The MIC in test [6] is 50 µg/mL (≈ 102 µM); in the test on Providencia Pv 16 it was 3.13 µg/mL (≈ 6.39 µM); in [7], 1.56 µg/mL (≈ 3.19 µM); in the test on Escherichia coli K-12 R5 it was 100 µg/mL (≈ 204 µM); in the test on Proteus vulgaris OX19, 0.78 µg/mL (≈ 1.59 µM); against Escherichia coli K-12, 0.78 µg/mL (≈ 1.59 µM). The “antibacterial activity compared with amikacin” value in [8] was “antibacterial activity as high as that of amikacin”.

As to `NCC[C@H](O)C(=O)N[C@@H]1C[C@H](N)[C@@H](O[C@H]2O[C@H](CN)[C@@H](O)[C@H](O)[C@H]2O)[C@H](O)[C@H]1O[C@H]1O[C@H](CO)[C@@H](O)[C@H](N)[C@H]1O` [Amikacin, 1-N-[(S)-4-amino-2-hydroxybutyryl]kanamycin A, reference compound], the MIC was 1.56 µg/mL (≈ 2.66 µM) in [1]; 3.13 µg/mL (≈ 5.34 µM) in test [2]; over 100 µg/mL in test [3]; 0.39 µg/mL (≈ 0.666 µM) in test [4]; 0.78 µg/mL (≈ 1.33 µM) in the test on Escherichia coli JR255; 100 µg/mL (≈ 171 µM) in test [5]. Also, the MIC in test [6] is 12.5 µg/mL (≈ 21.3 µM); in the test with Providencia Pv 16, 1.56 µg/mL (≈ 2.66 µM); in [7], 0.78 µg/mL (≈ 1.33 µM); in the test on Escherichia coli K-12 R5 it was 100 µg/mL (≈ 171 µM); in the test on Proteus vulgaris OX19, 1.56 µg/mL (≈ 2.66 µM); in the test with Escherichia coli K-12 it was 0.39 µg/mL (≈ 0.666 µM).
